Columns and labels:
Experiment in all cases: Kinobeads elution with test compound, mouse brain lysate, MS
Assay type in all cases: binding
Settings in all cases: kinase released from kinobeads by specific elution
[1] = target: T1, TRKB (Mus musculus, UniProt P15209)
T1 construct: from tissue; host or cells: mouse brain
Description: This example illustrates competitive elution of proteins bound to kinobeads with non-modified test compounds (see particularly the fourth aspect of the invention).
The kinobeads were contacted with mouse brain lysate under conditions that allow the binding of the proteins in the lysate to the ligands. The binding conditions were close to physiological by choosing suitable buffer conditions preserving the function of the proteins. After removing non-captured proteins through a gentle washing procedure the bound proteins were contacted with a test compound for protein elution.
Various test compounds (see section 2.7) were used to release bound proteins following these steps:
1. Resuspend beads with bound proteins (section 2.4) in 1×DP buffer/0.2% NP-40 as 1:3 slurry (volume/volume). 2. Transfer 20 μl the 1:3 slurry into MoBiTech columns (equivalent to 5 μl of beads). 3. Place the column into an Eppendorf tube and centrifuge it for 15 seconds at 800 rpm at 4° C. Close columns with lower lid. 4. Add 10 μl elution buffer containing 1.0 mM of the test compound (concentration ranges of 0.1 to 1.0 mM are suitable). As a control use elution buffer containing 2% DMSO or 2% DMF dependent on the solvent used for dissolving the test compound. Close column with upper lid. 5. Incubate for 30 minutes at 4° C. in an Eppendorf incubator at 700 rpm. 6. […] To harvest the eluate centrifuge 2 minutes at 2.000 rpm in table top centrifuge at room temperature. The typical volume of the eluate is approximately 15 μl. 7. Add 5 μl 4× NuPAGE SDS Sample Buffer (Invitrogen, NP0007) containing 100 mM DTT (DTT has to be added just prior to use). 8. Incubate for 30 minutes at 50° C. 9. Add 1/10 volume of 200 mg/ml iodoacetamide, incubate for 30 min at room temperature, protect from light. This reaction leads to the alkylation of cysteines for mass spectrometry. 10. Before loading samples onto the gel, centrifuge samples for 5 minutes at 15.000 rpm in order to remove precipitates. 11. […] 2.6 Preparation of Stock Solutions used in this Protocol
Search criteria varied depending on which mass spectrometer was used for the analysis.

[2] = target: ARG (Mus musculus, UniProt Q4JIM5)
ARG, sequence (Q4JIM5 whole entry): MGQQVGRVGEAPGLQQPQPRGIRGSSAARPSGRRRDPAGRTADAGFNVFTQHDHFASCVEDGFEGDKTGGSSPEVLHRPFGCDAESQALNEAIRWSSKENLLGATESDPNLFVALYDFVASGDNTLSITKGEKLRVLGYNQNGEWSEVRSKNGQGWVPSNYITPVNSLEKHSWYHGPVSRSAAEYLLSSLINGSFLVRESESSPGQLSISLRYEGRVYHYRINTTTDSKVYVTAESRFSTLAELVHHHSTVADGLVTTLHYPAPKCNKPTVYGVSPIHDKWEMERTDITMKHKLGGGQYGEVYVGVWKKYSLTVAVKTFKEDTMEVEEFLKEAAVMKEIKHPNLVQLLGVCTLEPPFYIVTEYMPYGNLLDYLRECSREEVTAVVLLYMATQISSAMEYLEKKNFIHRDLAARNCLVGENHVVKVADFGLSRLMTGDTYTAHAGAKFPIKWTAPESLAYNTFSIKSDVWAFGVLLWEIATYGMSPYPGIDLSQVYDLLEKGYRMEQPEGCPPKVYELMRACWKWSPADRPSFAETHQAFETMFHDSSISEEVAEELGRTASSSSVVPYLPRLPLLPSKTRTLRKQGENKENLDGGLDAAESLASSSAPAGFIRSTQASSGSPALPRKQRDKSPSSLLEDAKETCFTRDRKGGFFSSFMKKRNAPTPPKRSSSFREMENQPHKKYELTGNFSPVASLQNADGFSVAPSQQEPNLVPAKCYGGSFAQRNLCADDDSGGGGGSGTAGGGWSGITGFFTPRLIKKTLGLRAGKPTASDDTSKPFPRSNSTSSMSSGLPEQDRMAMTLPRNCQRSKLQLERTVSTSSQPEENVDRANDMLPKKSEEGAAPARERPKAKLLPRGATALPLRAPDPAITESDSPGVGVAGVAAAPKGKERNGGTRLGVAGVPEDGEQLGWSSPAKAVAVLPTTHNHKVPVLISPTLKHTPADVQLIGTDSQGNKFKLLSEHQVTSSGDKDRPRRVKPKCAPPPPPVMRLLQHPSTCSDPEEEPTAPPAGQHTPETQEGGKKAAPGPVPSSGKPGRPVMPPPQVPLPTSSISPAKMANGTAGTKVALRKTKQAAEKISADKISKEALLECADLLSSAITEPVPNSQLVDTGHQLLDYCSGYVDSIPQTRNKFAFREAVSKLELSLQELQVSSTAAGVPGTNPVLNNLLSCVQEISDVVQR
Method in brief: (§1)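 Kinobeads preloaded with mouse brain lysate under near-physiological buffer conditions were washed gently, then eluted for 30 min at 4° C with elution buffer holding 1.0 mM test compound; DMSO or DMF (2%) buffer served as control. Released proteins were reduced, alkylated, gel-separated and identified by mass spectrometry.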

[3] = target: T2, p38a (Mus musculus, UniProt P47811)
T2 construct: from tissue; host or cells: mouse brain
T2 sequence (P47811 whole entry): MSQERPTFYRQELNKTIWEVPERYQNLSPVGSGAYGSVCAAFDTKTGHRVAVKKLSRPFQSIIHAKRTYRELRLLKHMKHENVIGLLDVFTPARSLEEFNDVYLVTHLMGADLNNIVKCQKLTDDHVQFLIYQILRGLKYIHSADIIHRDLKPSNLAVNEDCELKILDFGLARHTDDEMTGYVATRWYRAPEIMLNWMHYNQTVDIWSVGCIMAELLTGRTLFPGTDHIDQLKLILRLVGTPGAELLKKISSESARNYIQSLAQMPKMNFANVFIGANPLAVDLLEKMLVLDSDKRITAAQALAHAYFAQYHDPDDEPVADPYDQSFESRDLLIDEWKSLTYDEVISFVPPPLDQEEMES
Method in brief: as §1

[4] = target: T3, p38b (Mus musculus, UniProt Q9WUI1)
T3 construct: from tissue; host or cells: mouse brain
T3 sequence (Q9WUI1 whole entry): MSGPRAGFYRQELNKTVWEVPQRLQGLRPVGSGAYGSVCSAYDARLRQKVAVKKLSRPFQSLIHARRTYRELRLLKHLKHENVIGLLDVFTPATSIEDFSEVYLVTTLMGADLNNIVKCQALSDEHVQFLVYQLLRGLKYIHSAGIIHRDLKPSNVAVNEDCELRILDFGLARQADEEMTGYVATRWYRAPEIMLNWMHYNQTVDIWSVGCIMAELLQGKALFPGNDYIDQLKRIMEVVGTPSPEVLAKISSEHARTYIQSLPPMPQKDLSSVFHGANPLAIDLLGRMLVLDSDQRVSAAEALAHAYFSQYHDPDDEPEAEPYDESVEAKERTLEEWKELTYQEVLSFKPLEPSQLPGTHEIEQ
Method in brief: as §1

[5] = target: T4, EphB1 (Mus musculus, UniProt Q8CBF3)
T4 sequence (Q8CBF3 18-984): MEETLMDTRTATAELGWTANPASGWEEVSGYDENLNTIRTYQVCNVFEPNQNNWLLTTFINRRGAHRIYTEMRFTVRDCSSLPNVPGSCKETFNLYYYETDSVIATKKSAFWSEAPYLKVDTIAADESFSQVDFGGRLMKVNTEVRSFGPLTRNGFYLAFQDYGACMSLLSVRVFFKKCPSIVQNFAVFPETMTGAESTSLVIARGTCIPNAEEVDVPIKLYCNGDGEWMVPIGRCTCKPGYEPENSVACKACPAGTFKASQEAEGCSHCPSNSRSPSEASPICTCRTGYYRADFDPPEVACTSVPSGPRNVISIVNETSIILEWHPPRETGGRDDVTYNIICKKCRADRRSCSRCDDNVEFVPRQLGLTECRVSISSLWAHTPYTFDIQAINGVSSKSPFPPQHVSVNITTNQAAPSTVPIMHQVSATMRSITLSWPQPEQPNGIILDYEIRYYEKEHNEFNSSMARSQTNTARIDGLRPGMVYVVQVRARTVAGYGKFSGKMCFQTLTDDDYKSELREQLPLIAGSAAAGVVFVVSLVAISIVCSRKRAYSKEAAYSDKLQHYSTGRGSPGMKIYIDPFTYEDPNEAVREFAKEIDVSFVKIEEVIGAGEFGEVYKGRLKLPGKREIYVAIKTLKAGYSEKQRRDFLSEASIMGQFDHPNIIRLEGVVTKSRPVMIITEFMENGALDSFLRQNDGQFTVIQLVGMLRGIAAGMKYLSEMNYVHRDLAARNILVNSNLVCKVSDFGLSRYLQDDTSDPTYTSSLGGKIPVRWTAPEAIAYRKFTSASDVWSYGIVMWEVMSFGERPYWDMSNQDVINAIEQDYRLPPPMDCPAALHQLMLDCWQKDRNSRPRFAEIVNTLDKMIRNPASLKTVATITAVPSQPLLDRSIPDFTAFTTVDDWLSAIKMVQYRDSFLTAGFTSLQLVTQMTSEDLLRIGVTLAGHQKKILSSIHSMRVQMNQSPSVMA
Method in brief: as §1

T1 sequence (P15209 32-821): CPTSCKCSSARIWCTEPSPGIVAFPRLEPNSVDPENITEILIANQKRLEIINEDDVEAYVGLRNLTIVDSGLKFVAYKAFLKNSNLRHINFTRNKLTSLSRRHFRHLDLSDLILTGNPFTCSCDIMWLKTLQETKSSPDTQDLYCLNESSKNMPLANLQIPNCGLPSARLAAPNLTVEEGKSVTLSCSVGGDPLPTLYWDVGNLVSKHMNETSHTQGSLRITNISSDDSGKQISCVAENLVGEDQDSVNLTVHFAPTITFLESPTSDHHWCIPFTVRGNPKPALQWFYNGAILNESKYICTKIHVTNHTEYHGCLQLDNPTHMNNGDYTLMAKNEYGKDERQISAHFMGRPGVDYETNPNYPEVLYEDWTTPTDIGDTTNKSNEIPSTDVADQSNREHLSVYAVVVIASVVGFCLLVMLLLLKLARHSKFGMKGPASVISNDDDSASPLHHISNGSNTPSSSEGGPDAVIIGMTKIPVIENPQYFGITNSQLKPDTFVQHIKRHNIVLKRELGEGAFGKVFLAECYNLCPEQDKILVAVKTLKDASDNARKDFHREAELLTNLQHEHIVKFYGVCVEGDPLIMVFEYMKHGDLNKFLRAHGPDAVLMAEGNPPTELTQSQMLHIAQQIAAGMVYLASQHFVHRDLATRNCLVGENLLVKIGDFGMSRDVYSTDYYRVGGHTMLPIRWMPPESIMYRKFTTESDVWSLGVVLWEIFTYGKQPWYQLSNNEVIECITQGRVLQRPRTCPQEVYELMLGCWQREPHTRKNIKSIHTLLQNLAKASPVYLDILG

CNC1CC2OC(C)(C1OC)n1c3ccccc3c3c4c(c5c6ccccc6n2c5c31)C(=O)NC4 (stereo not shown) [CZC9280]
number of identified peptides, TRKB [1]: 4

Cn1c(=O)c(-c2c(Cl)cccc2Cl)cc2cnc(Nc3ccc(CN)cc3)cc21 [CZC7324]
mass spectrometry score, ARG [2]: 59 | number of identified peptides, ARG [2]: 2 | mass spectrometry score, p38a [3]: 127 | number of identified peptides, p38a [3]: 6 | mass spectrometry score, p38b [4]: 60 | number of identified peptides, p38b [4]: 1

CC(C)[C@H](CO)Nc1nc(Nc2ccc(C(=O)O)c(Cl)c2)c2ncn(C(C)C)c2n1 [Purvalanol B, reference compound]
mass spectrometry score, EphB1 [5]: 366 | number of identified peptides, EphB1 [5]: 10 | mass spectrometry score, TRKB [1]: 207 | number of identified peptides, TRKB [1]: 4

CCCCCCCCCCCCOS(=O)(=O)[O-].[Na+] [SDS]
mass spectrometry score, ARG [2]: 452 | number of identified peptides, ARG [2]: 28 | mass spectrometry score, EphB1 [5]: 180 | number of identified peptides, EphB1 [5]: 10 | mass spectrometry score, p38a [3]: 104 | number of identified peptides, p38a [3]: 7 | mass spectrometry score, p38b [4]: 95 | number of identified peptides, p38b [4]: 3
